In the assay the target is Human immunodeficiency virus type 1 protease (Human immunodeficiency virus 1, UniProt Q72874). Kind of assay: Inhibitory activity against HIV-1 proteinase.

Structures are written as SMILES.

A word on the IC50: it is the point on the concentration scale where inhibition reaches its midpoint. Low readings indicate inhibition by little substance, high ones a need for much substance.

Consider `CC(C)CN1CC(O)(CNC(=O)[C@H]2N[C@@H]([C@H](NC(=O)Cc3ccccc3)C(=O)NCc3ccccc3)SC2(C)C)C[C@H]1C(=O)NC(C)(C)C` (stereo not given in full), for which the IC50 stood at 0.07 µM. In other words, the double-digit nanomolar range. The result for `CC(C)CN1CC(O)(CNC(=O)[C@@H]2N[C@@H]([C@H](NC(=O)Cc3ccccc3)C(=O)NCc3ccccc3)SC2(C)C)C[C@H]1C(=O)NC(C)(C)C` (stereo not given in full) reads 0.03 µM. The result for `CC(C)CN1C[C@](O)([C@H](CC2CCCCC2)NC(=O)CC(C)(C)C)C[C@H]1C(=O)NC(C)(C)C` reads 9 µM; that for `CC(C)CN1CC(O)(CNC(=O)OC(C)(C)C)C[C@@H]1C(=O)NC(C)(C)C` (stereo not given in full), above 90 µM; that for `CC(C)CN1CC(O)(CNC(=O)OC(C)(C)C)C[C@H]1C(=O)NC(C)(C)C` (stereo not given in full), above 90 µM.

Values taken from ChEMBL document CHEMBL1149941, “The design and synthesis of novel hydroxyproline inhibitors of HIV-1 proteinase” (Bioorg Med Chem Lett, 1993).
